In patent publication US20210128674A1, “LHRH-CONJUGATED PRODIGIOSIN AND USES THEREOF” (Worcester Polytechnic Institute, priority 2019, published 2021):
Entries after “also recorded” stand apart in the source; their conditions may differ.

What was measured:
[1] = system: breast cancer cells with knocked down LHRH receptors (MDA-MB-231); assay: alamar blue reduction after siRNA knock down of LHRH receptors; assay type: cell-based, human; conditions: 5 μM; 24, 48 and 72 hours; LHRH receptor knock down
[2] = histopathological and toxicity studies (body weight, clinical signs, H&E of organs); assay type: in vivo, athymic nude mice; conditions: 10 mg/kg weekly for two weeks, IV; for toxicity / side effects (clinical signs, mortality, body weight): tumor-bearing mice
Experimental: (§1) Different groups of mice were injected intravenously with each drug through their tail veins. This was done after tumor growth for 14, 21 and 28 days. The mice were injected with 10 mg/kg per week, during the two-week periods in which the effects of drugs were investigated. Following each drug administration, the tumor sizes were monitored with calipers on a daily basis (every 24 hours). In this way, the possible tumor shrinkage, growth or elimination, were monitored on a daily basis. Furthermore, the health status of the mice was monitored on a daily basis. This was done by monitoring the mice for signs of weight loss or altered motor ability in their cages. At the end of study, the mice were euthanized, following the approved IACUC guidelines and procedures. Thereafter, tumor tissues were excised from all of the mice, including tissues from their major organs (kidneys, spleen, liver and lungs).
(§2) Following the in vivo tumor induction and growth experiments, tissues were extracted from the kidneys, spleen, lungs, liver and tumor regions. These were immediately fixed in 4% paraformaldehyde, dehydrated in a graded series of alcohol, and embedded in paraffin. Double doses of 10 mg/kg of PGS and PGS-[D-Lys6]LHRH were then administered (on a weekly basis for two weeks) to female athymic nude mice that were subcutaneously-induced with TNBC. In this way, qualitative toxicity was studied by considering differences in mortality, changes in body weight, clinical signs, gross observations and the histopathology of the lungs, kidneys and the liver at different stages of tumor development. This was done for the different drugs and cancer treatment durations. Daily observations and weight measurements were also used to check for possible animal reactions to the drugs, physiological changes, weight loss/gain, and the general well-being of the mice.
(§3) Hematoxylin and eosin (H and E) staining was also carried out. This was used for the identification of tumor necrosis and the examination of histologic changes that occurred in vital organs, following the administration of the drugs. Briefly, formalin-fixed, paraffin-embedded tissue/organs (tumor, kidneys, liver and lungs) samples (5 μm) were injected with PGS, [D-Lys6]LHRH-conjugated PGS, and DMSO. These were hydrated by passing them through decreasing concentrations (100, 90 &70%) of alcohol baths and water.
(§4) The hydrated tissue sections were then stained in hematoxylin solution for 5 mins. This was followed by rinsing with tap water for 3 minutes and differentiation in 1% acid alcohol for 5 minutes. Tap water was then used to rinse (three times) before dipping the sections in ammonia water for 2 minutes. This was followed by staining with eosin for 10 mins. The treated sliced samples were dehydrated in solution with increasing concentrations of alcohols followed by xylene. Finally, a few drops of Permount Mounting Medium were used to mount the resulting samples. The stained slides were then imaged with a 20× objective lens using a TS100F Nikon microscope (Nikon Instruments Inc., Melville, N.Y., USA) coupled with a DS-Fi3 C camera.

[3] = system: MDA-MB-231 human triple negative breast cancer subcutaneous tumor xenografts; assay: subcutaneous xenograft tumor shrinkage study; assay type: in vivo, Athymic Nude-Foxn1nu strain mice; conditions: for anti-tumor effect over early, mid and late stages: 14-day, 21-day and 28-day groups, 10 mg/kg IV
Experimental: In this section, cell culture, tumor induction and drug injection studies were carried out. First, 20 μl of 1×10^6 MDA-MB-231 human triple negative cancer cells were cultured in T75 tissue culture flasks (CELLTREAT, Pepperell, Mass., USA). This was carried out at 37° C. until 70% confluence was reached. The cells were grown under normal atmospheric pressure levels in a “L15^+ medium” that is typically made up of: L-15 medium (ATCC, Manassas, Va., USA), supplemented with 100 I.U./ml penicillin/100 µg/ml streptomycin and 10% FBS (ATCC, Manassas, Va., USA).
Forty 4-week old Athymic Nude-Foxn1nu strain mice with individual weights of ˜17 g each was purchase from Envigo (Somerset, N.J., USA). These animals were approved for use in the current work by the University of Massachusetts Medical School Institutional Animal Care and Use Committee (UMMS IACUC) with docket #A2630-17. All of the animals were maintained and used according to the approved UMMS IACUC procedure and guideline.
Subcutaneous tumor xenografts were induced by the injection of 5.0×10^6 of MDA-MB-231 human triple negative breast cancer cells (suspended in sterile saline) into the interscapular region (for a better angiogenic response). Tumor formation was carefully assessed by palpation. Tumor growth was then monitored daily with the digital calipers. The tumor volume was calculated using the following modified ellipsoidal formula: […]
where length was the longest axis of the tumor and width is the measurement at a right angle to the length.
The mice were randomly chosen in groups of three (for each drugs injection) into their respective treatment groups. These include groups of mice with early stage (14 days after tumor induction), mid stage (21 days after tumor induction) and late stage (28 days after tumor induction) tumors. The weights of the mice and their tumor sizes were monitored and measured (using digital calipers) on a daily basis. These precise volumes and measured weights of the mice were used to guide the administration of the drugs. They were also used to monitor toxicity and side effects associated with the drugs. For each of the study groups, 3 mice each were randomly assigned to injection of 10 mg/kg of the specific drug configuration (PGS, [D-Lys6]LHRH-conjugated PGS, and DMSO).
as §1

[4] = system: MDA-MB-231 cells; assay: confocal fluorescence imaging of cellular uptake and cytotoxicity; assay type: cell-based, human; conditions: 30 μM; 6 hours
[5] = system: MDA-MB 231 induced xenograft breast tumor; assay: histopathological (H&E) and TEM examination of treated tumor tissue; assay type: in vivo, mice; conditions: for histopathology of tumor tissue (necrosis): after treatment, H&E
Experimental: as §2, §3
as §4, with “The stained slides were then imaged with a 20× objective lens using a TS100F Nikon microscope (Nikon Instruments Inc., Melville, N.Y., USA) coupled with a DS-Fi3 C camera.” left out

[6] = system: breast cancer tumor (LHRH receptors on triple negative breast tumor tissue); assay: drug-tissue adhesion study with drug-coated AFM tips; assay type: binding, mice
Experimental: In an effort to understand the specificity in the targeting of triple negative breast cancer via the receptors that are over-expressed on the tumor, adhesion measurements were carried out on the control xenograft tissue samples at different stages of tumor development. Adhesion forces and interactions (between the different drug molecules and receptors on the surfaces of the tumor tissues at different stages of development) were explored in an effort to understand the interactions of the drugs with the tumor and non-tumor tissue.
Antigen retrieval was carried out on the fixed tissue. This involved exposing target antigens to receptors on a 10 μm thick microtome tissue slice. These sliced tissues were prepared for adhesion measurements in an Asylum MFP3D-Bio Atomic Force Microscope (AFM) (Asylum Research, Oxford Instrument, CA, USA). The AFM tips RESP-20 AFM tip (Bruker Santa Barbara, Calif., USA) were dip-coated with prodigiosin, or [D-Lys6]LHRH-conjugated prodigiosin using the techniques described in Obayemi et al. (J. Mech. Behav. Biomed. Mater., 68 (2017), pp. 276-286).
A simple AFM tip dip-coating technique (J. D. Obayemi et al. Materials Science and Engineering C. 66, (2016), 51-65, Hampp, E. et al. Res. 27 (22), 2891, Hutter, J. L. et al. Instrum. 64, 1868) (of the drugs) was used to coat the AFM tips at room-temperature (˜23° C.). In addition, a positive control of LHRH peptides was coated onto the AFM tips and used to determine the adhesion forces between the receptors on breast cancer tissue. All of the coated AFM tips were air-dried for about 6 h and kept in a desiccator overnight before the adhesion measurements.
The spring constants of the coated and uncoated AFM tips were measured experimentally using the thermal tune method (J. D. Obayemi, et al. Mater., 68 (2017), 276-286). This was done to obtain the actual spring constants that were used to calculate the pull-off forces from Hooke's law. The adhesion interactions were measured for the following configurations of coatings on the AFM tips and breast cancer tumor at different stages on the mice: […]

[7] = system: MDA MB 231 cells
Experimental: The alamar blue cell viability and cytotoxicity assay was used to study the MDA MB 231 cells lines in the log phase of growth. MDA MB 231 cells were harvested with trypsin-EDTA in the presence of Dulbecco Phosphate Buffer (DPBS). 10^4 cells/well were then seeded in 12-well plates in L15+ medium (L15 medium with cell medium supplement of FBS and penicillin/streptomycin). […] Cell viability was monitored using the alamar blue cell viability and cytotoxicity reagent (Thermo Fisher Scientific, Waltham, Mass., USA) at times of 0 h, 18 h, 24 h, 48 h and 72 h, following drug addition. At each time point, the culture medium was replaced with 1 ml of 10% alamar blue solution (in culture medium). The 12-well plates were then incubated at 37° C. for different durations. After each time point, 100 μl of the solution incubated with alamar blue solution (ABS) was transferred into triplicate wells of a black opaque 96-well plate (Thermo Fisher Scientific, Waltham, Mass., USA).
The fluorescence intensities of the cell medium supernatant incubated with ABS were measured at 544 nm excitation and 590 nm emission using a 1420 Victor3 multi-label plate reader (Perkin Elmer, Waltham, Mass., USA). The percentage of alamar blue reduction, the percentage difference in cell population between the treated and untreated cells, and the percentage of cell growth inhibition, were determined using a combination of the ABS and cell viability studies. In this way, the cytotoxicity of the respective conjugated drug molecules was obtained from equations 1 and 2 below.
where, FIsample=fluorescence intensity of the (treated or untreated) cells, FI10% AB=fluorescence intensity of 10% alamar blue reagent (negative control) and FI10% R=fluorescence intensity of 100% reduced alamar blue (positive control).
FItreated=fluorescence intensity of treated cells and FIcells=fluorescence intensity of untreated cells

[8] = 21-day (mid stage) group, 10 mg/kg per week IV, two weeks
[9] = 28-day (late stage) group, 10 mg/kg per week IV, two weeks
[10] = day 14 (early stage) group, two IV injections (one per week) of 10 mg/kg
[11] = listed as [D-Lys6]LHRH-conjugated PGS

CCCCCC1=C/C(=C/c2[nH]c(-c3ccc[nH]3)cc2OC)N=C1C [PGS, 4-methoxy-5-[(Z)-(5-methyl-4-pentyl-2H-pyrrol-2-ylidene)methyl]-1H,1′H-2,2′-bipyrrole, reference compound]
cell viability (percentage alamar blue reduction) in siRNA-treated cells [1]: no significant differences in cell viability
histological / pathological changes in liver, lung and kidneys (H&E) [2]: no significant histological or significant pathological changes
resulting tumor volume [3, 8]: 90.11 mm^3
xenograft tumor size [3, 9]: 300.3 mm^3
final tumor sizes [3, 10]: ~29.42 mm^3
tumor outcome, early stage [3, 10]: some tumor shrinkage
structural changes of actin filaments, vinculin and nuclei (confocal) [4]: degradation, disorganization and depolymerization of the actin filaments and vinculin structures

LHRH-PGS: [D-Lys6]LHRH analog conjugated to prodigiosin at the epsilon (ε) amino side chain of the D-Lys6 moiety
cell viability (percentage alamar blue reduction) in siRNA-treated cells [1]: no significant differences in cell viability
histological / pathological changes in liver, lung and kidneys (H&E) ([2]; listed as [D-Lys6]LHRH-PGS): did not induce any degeneration in the primary organs
histological / pathological changes in liver, lung and kidneys (H&E) [2, 11]: no significant histological or significant pathological changes; also recorded: no evidence of liver cell hyaline degeneration and necrosis; also recorded: no pulmonary edema or hyperplasia; also recorded: glomerular volume of the kidneys was normal; also recorded: no chemotherapeutic drug-induced histological changes and tumor metastasis
toxicity / side effects (clinical signs, mortality, body weight) ([2]; listed as LHRH-prodigiosin): No clinical signs, differences in mortality, or changes in body weight
toxicity / side effects (clinical signs, mortality, body weight) ([2]; listed as [D-Lys6]LHRH-conjugated prodigiosin): minimal; also recorded: without any evidence of toxicity
structural changes of tumor cells/tissue (TEM) ([5]; 21-day and 28-day treatment groups): greater structural changes
histopathology of tumor tissue (necrosis) [5]: exhibited disorder and different sizes
histopathology of tumor tissue (necrosis) [5, 11]: higher levels of necrosis in the tumors
adhesion force relative to unconjugated PGS, early stage ([6]; early stage breast tumor): nearly three times
adhesion force relative to unconjugated PGS, late stage ([6]; late stage breast tumor): four times
adhesion force relative to unconjugated PGS, mid stage ([6]; mid stage breast tumor): three times
anti-tumor effect over early, mid and late stages ([3]; listed as LHRH-prodigiosin, 10 mg/kg): decrease, shrink or eliminate tumors
anti-tumor effect over early, mid and late stages ([3]; listed as [D-Lys6]LHRH-conjugated PGS, 10 mg/kg): significant anti-tumor effects; also recorded: highest therapeutic activity
anti-tumor effect over early, mid and late stages ([3]; listed as [D-Lys6]LHRH-conjugated prodigiosin, 10 mg/kg): shrunk or eliminate the induced tumor
decrease in xenograft volume compared to unconjugated PGS [3, 8]: 95.6%
resulting tumor volume [3, 8]: 3.93 mm^3
tumor outcome, mid stage [3, 8]: significant shrinkage
percentage reduction in xenograft tumor volume compared to unconjugated PGS [3, 9]: 83.4%
xenograft tumor size [3, 9]: 49.9 mm^3
tumor outcome, late stage ([3]; 28-day (late stage) group, 10 mg/kg per week IV, two weeks, 10 mg/kg): significant tumor shrinkage
tumor outcome, late stage ([3]; 28-day (late stage) group, 10 mg/kg per week IV, two weeks, listed as [D-Lys6]LHRH-conjugated prodigiosin, 10 mg/kg): significant shrinkage
tumor outcome, early stage ([3]; day 14 (early stage) group, two IV injections (one per week) of 10 mg/kg, listed as LHRH-conjugated prodigiosin, 10 mg/kg): elimination of early stage breast tumors
tumor outcome, early stage ([3]; day 14 (early stage) group, two IV injections (one per week) of 10 mg/kg, listed as [D-Lys6]LHRH-conjugated PGS, 10 mg/kg): tumor elimination
tumor outcome, early stage ([3]; day 14 (early stage) group, two IV injections (one per week) of 10 mg/kg, listed as [D-Lys6]LHRH-conjugated prodigiosin, 10 mg/kg): eliminated the tumors
cytotoxicity on co-incubation of LHRH [7]: decreased the cytoxicity
percentage alamar blue reduction (cell viability) ([7]; 15 μM, 25 μM, 30 μM, 18, 24, 48 and 72 h post-treatment): increasing drug concentration had a greater effect on cell growth
percentage cell growth inhibition ([7]; 15 μM, 25 μM, 30 μM, 72 h): effective at inhibiting the growth
structural changes of actin filaments, vinculin and nuclei (confocal) [4]: more evident
